Source: patent US20180370912A1, “COMPOUNDS AND METHODS FOR TREATING DISEASES MEDIATED BY PROTEIN DISULFIDE ISOMERASE” (Beth Israel Deaconess Medical Center, Inc., priority 2017, published 2018)

Legend:
ERp57 [1] = molecular target: T1, ERp57 (Homo sapiens, UniProt P30101); assay: Maleimide-polyethylene glycol-2-biotin (MPB) binding; settings: 150 μM inhibitor, FIG. 2c, FIG. 8
T1 construct: FLAG; made in house; host or cells: Escherichia coli Origami B (DE3), pET-15b
T1 sequence (P30101 25-505): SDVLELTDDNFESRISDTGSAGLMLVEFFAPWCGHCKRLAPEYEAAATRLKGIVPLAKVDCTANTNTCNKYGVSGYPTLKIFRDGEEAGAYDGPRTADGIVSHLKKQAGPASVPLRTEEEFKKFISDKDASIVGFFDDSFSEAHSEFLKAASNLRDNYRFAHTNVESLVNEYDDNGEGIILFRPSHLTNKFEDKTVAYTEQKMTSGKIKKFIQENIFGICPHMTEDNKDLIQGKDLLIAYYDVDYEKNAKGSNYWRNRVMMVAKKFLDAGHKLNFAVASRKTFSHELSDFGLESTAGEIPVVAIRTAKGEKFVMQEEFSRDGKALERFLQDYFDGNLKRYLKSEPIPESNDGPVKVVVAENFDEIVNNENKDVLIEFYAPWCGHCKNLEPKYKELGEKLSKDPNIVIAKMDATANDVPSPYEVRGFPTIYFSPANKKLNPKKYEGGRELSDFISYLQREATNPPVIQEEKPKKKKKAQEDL
Method: (§1) Maleimide-Polyethanol glycol-2-Biotin (MPB) binding experiments were performed in a reaction volume of 37.5 μL with 5 μM of thiol isomerase or bovine serum albumin (BSA) in Tris-buffered saline (TBS), in the presence and absence of 1 mM of N-ethylmaleimide (NEM) or bacitracin, and 150 μM of the mentioned other inhibitors. The reaction mixture was incubated at 37° C. for 1 hour. Subsequently, the reaction mixtures were incubated with 25 μM of MPB. The labeling was performed for 20 minutes at 25° C. A total of 12.5 μL of 4× Laemmli Sample Buffer with 5% β-mercaptoethanol was added to each of the samples, followed by heating at 95° C. for 10 minutes. From each sample, 10 μL was loaded on a 12% SDS-PAGE gel, followed by transfer on a nitrocellulose membrane. After blocking the membrane with TBS-T containing 5% BSA for one hour, the membrane was incubated with a 1:2000 dilution of Cy5-tagged Streptavidin for an hour in the dark. Detection of the immunoblots was performed using ImageQuant LAS 4000 and analysis was performed using ImageQuant TL software.

ERp5 [2] = molecular target: T2, ERp5 (Homo sapiens, UniProt Q15084); assay: as above; settings: 150 μM inhibitor, FIG. 2c, FIG. 8
T2 construct: recombinant His-tagged full-length ERp5, ERp72 and PDI domain fragments; His; made in house; host or cells: Escherichia coli Origami B (DE3), pET-15b
T2 sequence (Q15084 20-440): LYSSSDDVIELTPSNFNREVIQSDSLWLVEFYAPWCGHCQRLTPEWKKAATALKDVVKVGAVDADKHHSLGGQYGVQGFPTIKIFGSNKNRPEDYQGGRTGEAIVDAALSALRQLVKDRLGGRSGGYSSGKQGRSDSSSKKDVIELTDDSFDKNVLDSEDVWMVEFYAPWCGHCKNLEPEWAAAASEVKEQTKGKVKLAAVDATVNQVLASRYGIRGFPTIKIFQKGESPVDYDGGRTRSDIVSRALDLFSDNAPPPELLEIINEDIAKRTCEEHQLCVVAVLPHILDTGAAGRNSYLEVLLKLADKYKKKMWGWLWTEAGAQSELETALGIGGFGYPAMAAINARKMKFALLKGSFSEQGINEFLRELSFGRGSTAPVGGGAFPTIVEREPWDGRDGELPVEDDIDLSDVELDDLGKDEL
Method: as §1

thioredoxin = molecular target: T3, thioredoxin (Homo sapiens, UniProt P10599); assay: as above; settings: 150 μM inhibitor, FIG. 2c, FIG. 8
T3 sequence (P10599 1-105): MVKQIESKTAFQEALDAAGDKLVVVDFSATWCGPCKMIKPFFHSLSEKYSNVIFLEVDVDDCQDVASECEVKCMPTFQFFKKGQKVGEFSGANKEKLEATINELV
Method: as §1

ERp57 [3] = molecular target: T1, ERp57; assay: Di-eosin-GSSG disulfide reductase assay; type: biochemical
Method: (§2) The probe di-eosin glutathione disulfide, di-eosin-GSSG, was prepared as previously described in Raturi, A., Vacratsis, P. O., Seslija, D., Lee, L. & Mutus, B., Biochem J 391, 351-357 (2005). Reductase activity of purified thiol isomerases and PDI domains was monitored in a 96-well fluorescence plate format. PDI, AGHA-PDI, ERpS, ERp57, ERp72 and PDI domains were assayed at 50 nM in the presence or absence of the indicated small molecules, peptides or cathepsin G. The assay included 100 mM potassium phosphate (pH 7.4) containing 2 mM EDTA, 5 μM DTT and 150 nM of the di-eosin GSSG probe. The increase in fluorescence was determined for 20 minutes by excitation at 520 nm and emission at 550 nm in a Synergy Biotek 4. The reduction of 150 nM di-eosin-GSSG by 5 μM DTT in the presence or absence of mentioned small molecules, peptides or proteins served as a negative control.

ERp72 = molecular target: T4, ERp72 (Homo sapiens, UniProt P13667); assay: Di-eosin-GSSG disulfide reductase assay; type: biochemical
T4 construct: recombinant His-tagged full-length ERp5, ERp72 and PDI domain fragments; His; made in house; host or cells: Escherichia coli Origami B (DE3), pET-15b
T4 sequence (P13667 21-645): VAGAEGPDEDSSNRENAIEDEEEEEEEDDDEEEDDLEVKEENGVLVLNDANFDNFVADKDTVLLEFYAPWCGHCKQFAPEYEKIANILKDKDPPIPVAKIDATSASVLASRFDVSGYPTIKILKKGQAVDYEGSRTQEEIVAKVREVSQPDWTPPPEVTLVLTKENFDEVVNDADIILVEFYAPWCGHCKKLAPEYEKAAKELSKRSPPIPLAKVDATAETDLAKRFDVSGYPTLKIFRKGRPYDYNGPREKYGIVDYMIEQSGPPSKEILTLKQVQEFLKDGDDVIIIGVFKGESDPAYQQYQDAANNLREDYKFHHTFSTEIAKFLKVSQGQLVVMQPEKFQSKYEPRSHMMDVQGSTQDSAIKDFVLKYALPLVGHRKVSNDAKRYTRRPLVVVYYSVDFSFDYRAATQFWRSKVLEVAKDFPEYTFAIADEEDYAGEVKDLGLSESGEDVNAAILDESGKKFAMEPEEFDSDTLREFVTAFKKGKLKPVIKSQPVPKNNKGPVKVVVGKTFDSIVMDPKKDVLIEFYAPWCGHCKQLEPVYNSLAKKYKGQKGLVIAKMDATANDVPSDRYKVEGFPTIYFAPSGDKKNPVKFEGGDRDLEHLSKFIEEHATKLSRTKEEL
Method: as §2

ERp5 [4] = molecular target: T2, ERp5; assay: Di-eosin-GSSG disulfide reductase assay; type: biochemical
Method: as §2

Row | Structure (SMILES) | reaction of MPB with the catalytic cysteines of ERp57 (ERp57 [1]) | reaction of MPB with the catalytic cysteines of ERp5 (ERp5 [2]) | reaction of MPB with the catalytic cysteines of thioredoxin (thioredoxin) | cleavage of di-eosin-GSSG by ERp57 (catalytic activity) (ERp57 [3]) | cleavage of di-eosin-GSSG by ERp72 (catalytic activity) (ERp72) | cleavage of di-eosin-GSSG by ERp5 (catalytic activity) (ERp5 [4])
1 | C#CC(=O)N(c1ccc(OC)cc1OC)C(C(=O)NCC(=O)OCC)c1cccs1 (stereo not drawn) [PACMA-31, N-(2,4-Dimethoxyphenyl)-N-(1-oxo-2-propyn-1-yl)-2-(2-thienyl)glycyl-glycine ethyl ester, reference compound] | interfered with the reaction of maleimide-polyethylene glycol-2-biotin (MPB) | interfered with the reaction of maleimide-polyethylene glycol-2-biotin (MPB) | interfered with the reaction of maleimide-polyethylene glycol-2-biotin (MPB) | – | – | –
2 | CCOC(=O)c1c(CNCCN(CC)CC)n(-c2ccccc2)c2cc(Br)c(O)cc12 [bepristat 2a] | – | – | – | did not augment activity | did not augment activity | did not augment activity
